From PMC8765781, “A platform of assays for the discovery of anti-Zika small-molecules with activity in a 3D-bioprinted outer-blood-retina model” (PLoS ONE, 2022)
pIC50: −log10 of the molar value. Read-outs that look alike come from different tables or passages of the source.

Legend:
[1] = tested on: wild-type ZIKV (Ugandan MR766 strain) in Vero cells; test: ZIKV cytopathic effect (CPE) inhibition qHTS assay, CellTiter-Glo readout; format: cell-based, Zika virus; settings: for pIC50: read-out: ZIKV-infection (CPE, ZIKV Antiviral Assays), IC50
[2] = tested on: ZIKV-RLuc (Cambodian strain FSS13025); test: microbe, parasite or virus in culture; format: cell-based, Zika virus; settings: for pIC50: read-out: Rluc-ZIKV (ZIKV Antiviral Assays), IC50
[3] = tested on: Vero cells
[4] = tested on: caspase-3 activity induced by ZIKV in Vero cells; test: cells; format: cell-based; settings: read-out: Caspase 3 (ZIKV Antiviral Assays), IC50
[5] = in vitro; settings: African green monkey
[6] = tested on: ZIKV-mCherry (Cambodian strain FSS13025); test: microbe, parasite or virus in culture; format: cell-based, Zika virus
[7] = Zika virus, Vero, read-out: Log AC50 (M) (converted)

| Structure (SMILES) | CC-v2 (curve class classification v2 of the dose response curve) [2] | Efficacy (difference between neutral response and maximum compound response) [2] | Max Resp (difference between neutral response and compound response for highest compound concentration) [2] | AC50 ([2]; Zika virus, Vero) [M] | AC50 [2, 7] [M] | AC50 [3] [µM] | Log AC50 (M) [3] [M] | further results |
| --- | --- | --- | --- | --- | --- | --- | --- | --- |
| CC1=C(CO)C(=O)O[C@@H]([C@@H](C)[C@H]2CC[C@H]3[C@@H]4C[C@H]5O[C@]56[C@@H](O)C=CC(=O)[C@]6(C)[C@H]4CC[C@]23C)C1 [NCGC00180796-02] | -2.1 | -108.248 | -100.116 | 1.02e-05 | 1.02e-05 | 10.2 | -4.9908 | Curve class [1]: -3; Efficacy [1]: -63.347; AC50 ([1]; Zika virus, Vero): 3.55e-05 M; AC50 ([1]; Zika virus, Vero, read-out: Log AC50 (converted)): 3.55e-05 M; Emax ([1]; Zika virus, Vero, read-out: Max response): -65.4% |
| O=C1NC2CCCCN2C12CCN(CCCN1c3ccccc3CCc3ccc(Cl)cc31)CC2 (centres unmarked) [NCGC00183853-01] | -2.1 | -99.983 | -99.289 | 2.61e-05 | 2.61e-05 | 26.1 | -4.5827 | AC50 ([1]; Zika virus, Vero, from Hill fit of the response curve, 50% of maximum activity response, 194 cherry-picked compounds, protocol name not given, read-out: AC50): 6.51e-05 M; AC50 ([1]; Zika virus, Vero, potency in log units (Molar) from Hill fit of the response curve, 194 cherry-picked compounds, protocol name not given, read-out: Log AC50 (converted)): 6.51e-05 M; CC-v2 (curve class classification of the dose response curve) ([1]; curve class v2 (Inglese et al. 2006)): -3; Efficacy ([1]; difference between neutral response and maximum compound response): -47.567 |
| CC1(C)CC[C@]2(C(=O)O)CC[C@]3(C)C(=CCC4[C@@]5(C)CCC(O[C@@H]6OC[C@H](O)[C@H](O)[C@H]6O[C@@H]6O[C@H](CO)[C@@H](O)[C@H](O)[C@H]6O)[C@@](C)(CO)C5CC[C@]43C)[C@@H]2C1 (some centres unmarked) [NCGC00347737-02] |  |  |  |  |  |  |  | Efficacy [1]: -61.863; AC50 ([1]; Zika virus, Vero): 2.43e-07 M; pIC50 ([1]; Zika virus, Vero, 48 h): 6.62; AC50 [1, 7]: 2.43e-07 M; pIC50 ([4]; Zika virus, Vero, 48 h): 7.70; pIC50 ([2]; Zika virus, Vero, 48 h): 4.91; CC50 at 48 h ([5]; Vero cells): > 50 µM |
| CC(C)(C)OC(=O)N[C@@H](Cc1ccc(O[S+](=O)([O-])c2cccc3cnccc23)cc1)C(=O)N1CCCN(C(=O)OC(C)(C)C)CC1 [NCGC00348020-01] | -3 | -104.596 | -83.301 | 3.69e-05 | 3.69e-05 | 36.9 | -4.4327 |  |
| CC1OC(OC2C(OC3C(OC4CCC5(C)C(CCC6(C)C5CC=C5C7CC(C)(C)CCC7(C(=O)O)C(O)CC56C)C4(C)C)OC(C(=O)O)C(O)C3O)OC(CO)C(OC3OCC(O)C(OC4OC(CO)C(O)C4O)C3O)C2OC2OC(C)C(O)C(O)C2O)C(O)C(O)C1O (centres unmarked) [NCGC00380107-01] | -2.1 | -79.638 | -81.884 | 1.28e-05 | 1.28e-05 | 12.8 | -4.894 |  |
| C[C@@H]1O[C@@H](O[C@H]2[C@H](OC(=O)[C@]34CCC(C)(C)C[C@H]3C3=CCC5[C@@]6(C)C[C@H](O)[C@H](O[C@@H]7O[C@H](C(=O)O)[C@@H](O)[C@H](O)[C@H]7O)[C@@](C)(CO)C6[C@H](O)C[C@@]5(C)[C@]3(C)CC4)OC[C@H](O)[C@@H]2O)[C@H](O)[C@H](O)[C@H]1O[C@@H]1OC[C@@H](O)[C@H](O[C@@H]2OC[C@](O)(CO)[C@H]2O)[C@H]1O (some centres unmarked) [NCGC00380219-01] | -2.1 | -96.8 | -99.643 | 1.16e-05 | 1.16e-05 | 11.6 | -4.9345 |  |
| COC1C(O)C(OC2CCC3(C)C(CCC4C3CCC3(C)C(C5=CC(=O)OC5)CCC43O)C2)OC(C)C1OC1OC(COC2OC(CO)C(O)C(O)C2O)C(O)C(O)C1O (centres unmarked) [NCGC00380220-01] | -1.1 | -95.552 | -99.662 | 1.29e-06 | 1.29e-06 | 1.29 | -5.8908 |  |
| CC(=O)O[C@@H]1[C@@H](O)[C@H]2O[C@@H]3C=C(C)[C@@H](O)C[C@]3(CO)[C@]1(C)[C@]21CO1 [NCGC00380400-01, NT-2 toxin] |  |  |  |  |  |  |  | CC-v2 (curve class classification of the dose response curve) [1]: -1.2; Efficacy [1]: -41.676; Log AC50 (M) [1]: -5.594 M; Max Resp [1]: 6.747; AC50 ([1]; read-out: AC50): 2.55e-06 M; pIC50 [1]: 5.59; pIC50 [4]: 5.64; pIC50 [2]: 6.19; CC-v2 (curve class of the dose response curve) [6]: -1.2; Efficacy (difference between neutral response and maximum compound response) [6]: -59.911; Log AC50 (M) [6]: -7.0328 M; Max Resp (difference between neutral response and response at highest compound concentration) [6]: -100.305; AC50 ([6]; read-out: AC50): 0.0927 µM |
| CC1CCCC(SCC(O)C(=O)O)CC(=O)c2c(O)cc(O)cc2CC(=O)O1 (centres unmarked) [NCGC00380419-01] | -3 | -93.408 | -77.007 | 1.82e-05 | 1.82e-05 | 18.2 | -4.7408 |  |
| C/C(=C\CO)CC/C=C(\C)CCC(O)C(C)(O)CCCC(C)(O)CCCC(C)(O)CCCC(C)(O)CCCC(C)(O)CCCC(C)(O)CCCC(C)(C)O (centres unmarked) [NCGC00381040-01] | -1.1 | -92.604 | -99.402 | 1.44e-06 | 1.44e-06 | 1.44 | -5.8408 |  |
| COc1ccc2c(c1)CN(C(=O)CCN1CCC(Cc3ccccc3)CC1)CCS2 [NCGC00384450-01] | -3 | -97.233 | -83.243 | 3.69e-05 | 3.69e-05 | 36.9 | -4.4327 |  |
| C/C=C(/C)C(=O)O[C@H]1[C@@H]2[C@H](C)C(=O)O[C@@H]2C[C@@H](C)[C@@H]2C=CC(=O)[C@]21C [NCGC00385048-01] |  |  |  |  |  |  |  | Efficacy [1]: -20.801; pIC50 ([4]; Zika virus, Vero, 48 h): 6.19; pIC50 ([2]; Zika virus, Vero, 48 h): 4.74; CC50 at 48 h [5]: > 50 µM |
| C=C(C)[C@H]1CCC(C)=C[C@@H]1c1c(O)cc(CCCCC)cc1O [NCGC00385066-01] | -3 | -124.845 | -99.067 | 3.69e-05 | 3.69e-05 | 36.9 | -4.4327 |  |
| Oc1cc(O)cc(CCCCC/C=C\CCCCCCCc2cc(O)cc(O)c2)c1 [NCGC00385180-01] | -3 | -110.94 | -89.374 | 3.69e-05 | 3.69e-05 |  | -4.4327 |  |
| COc1ccc(-c2oc3cc(O)c(OC)c(O)c3c(=O)c2OC)cc1O [NCGC00385612-01] | -1.2 | -71.455 | -72.562 | 1.17e-06 | 1.17e-06 | 1.17 | -5.9327 |  |
